Data as given in patent US9376418B2, “Substituted pyridine spleen tyrosine kinase (SYK) inhibitors” (Merck Sharp & Dohme Corp., priority 2012, dated 2016).

Biological target: T1, recombinant human GST-SYK (Homo sapiens, UniProt P43405)
T1 construct: purchased Carna Biosciences 08-176
Experiment: Homogeneous Time-Resolved Fluorescence (HTRF) assay for the recombinant human Syk enzyme
Format: biochemical
Settings: HTRF assay, recombinant human GST-SYK; IC50 given as class symbols; read-out: rhSYK Activity
Experimental: Homogeneous Time-Resolved Fluorescence (HTRF) Assay for the Recombinant Human Syk Enzyme
A recombinant GST-hSYK fusion protein was used to measure potency of compounds to inhibit human Syk activity. The recombinant human GST-SYK (Carna Biosciences #08-176) ([…]) was incubated with various concentrations of the inhibitor diluted in DMSO (0.1% final concentration) for 10 minutes at room temperature in 15 mM Tris-HCl (pH 7.5), 0.01% tween 20, 2 mM DTT in 384 well plate format. To initiate the reaction the biotinylated substrate peptide (250 nM final concentration) that contains the phosphorylation site for Syk was added with magnesium (5 mM final concentration) and ATP (25 μM final concentration). Final volume of the reaction was 10 μL. Phosphorylation of the peptide was allowed to proceed for 45′ at room temperature. To quench the reaction and detect the phosphorylated product, 2 nM of a Europium-anti-phosphotyrosine antibody (Perkin Elmer #AD0161) and 70 nM SA-APC (Perkin-Elmer #CR130-100) were added together in 15 mM Tris pH 7.5, 40 mM EDTA, 0.01% tween 20. Final volume of the quenching solution was 10 μL. The resulting HTRF signal was measured after 30 minutes on an EnVision (Perkin-Elmer) reader using a time-resolved fluorescence protocol.

`Cc1cc(Nc2nccc(C(F)(F)F)n2)cc(-c2ccc(N3CCCC3C(N)=O)nc2)c1` (racemic) [Example 7.38, 1-[5-(3-methyl-5-{[4-(trifluoromethyl)pyrimidin-2-yl]amino}phenyl)pyridin-2-yl]prolinamide] and `Cc1cc(Nc2nccc(C(F)(F)F)n2)cc(-c2ccc(N3CCCC3C(=O)O)nc2)c1` (racemic) [Example 7.119, 1-[5-(3-methyl-5-{[4-(trifluoromethyl)pyrimidin-2-yl]amino}phenyl)pyridin-2-yl]proline] cannot be ordered by IC50: less than 100 nM for the first, less than 100 nM for the second.

First: CNC(=O)C1CCCN1c1cc(-c2cc(C)cc(Nc3nccc(C(F)(F)F)n3)c2)ccn1 (racemic) [Example 15.81, N-methyl-1-[4-(3-methyl-5-{[4-(trifluoromethyl)pyrimidin-2-yl]amino}phenyl)pyridin-2-yl]prolinamide]
Second: Cc1cc(Nc2nccc(C(F)(F)F)n2)cc(-c2ccc(N3CCCC3C(=O)O)nc2)c1 (single isomer, unassigned) [Example 7.122, 1-[5-(3-methyl-5-{[4-(trifluoromethyl)pyrimidin-2-yl]amino}phenyl)pyridin-2-yl]proline]
The IC50 of the first is higher: 100 to 1000 nM for the first, less than 100 nM for the second. The second is the more potent here.

First: CCCCOC(=O)[C@H]1CC[C@H](C(C)(O)c2ccc(-c3cc(C)cc(Nc4nccc(C5CC5)n4)c3)cn2)CC1 (relative stereo) [Example 9.48, butyl trans-4-[1-(5-{3-[(4-cyclopropylpyrimidin-2-yl)amino]-5-methylphenyl}pyridin-2-yl)-1-hydroxyethyl]cyclohexanecarboxylate]
Second: CCCCOC(=O)[C@H]1CC[C@H](C(C)(O)c2ccc(-c3cc(C)cc(Nc4nccc(OC)n4)c3)cn2)CC1 (relative stereo) [Example 9.49, butyl trans-4-[1-hydroxy-1-(5-{3-[(4-methoxypyrimidin-2-yl)amino]-5-methylphenyl}pyridin-2-yl)ethyl]cyclohexanecarboxylate]
The IC50 of the first is higher: 100 to 1000 nM for the first, less than 100 nM for the second. The second is the more potent here.

`CC1(C)CC(O)(c2ccc(-c3cc(F)cc(Nc4nccc(C(F)(F)F)n4)c3)cn2)CCC1C(=O)O` (single isomer, unassigned) [Example 9.4, (1S,4R or 1R,4S)-4-[5-(3-fluoro-5-{[4-(trifluoromethyl)pyrimidin-2-yl]amino}phenyl)pyridin-2-yl]-4-hydroxy-2,2-dimethylcyclohexanecarboxylic acid] and `Cc1cc(Nc2nccc(C(F)(F)F)n2)cc(-c2ccc(C3(O)CCC(C(=O)O)C(C)(C)C3)nc2)c1` (single isomer, unassigned) [Example 9.8, (1S,4R or 1R,4S)-4-hydroxy-2,2-dimethyl-4-[5-(3-methyl-5-{[4-(trifluoromethyl)pyrimidin-2-yl]amino}phenyl)pyridin-2-yl]cyclohexanecarboxylic acid] cannot be ordered by IC50: less than 100 nM for the first, less than 100 nM for the second.

First: Cc1cc(Nc2nccc(C(F)(F)F)n2)cc(-c2ccc(C34CCC(C(=O)O3)C(C)(C)C4)nc2)c1 (single isomer, unassigned) [Example 9.9, (1R,4S or 1S,4R)-5,5-dimethyl-1-[5-(3-methyl-5-{[4-(trifluoromethyl)pyrimidin-2-yl]amino}phenyl)pyridin-2-yl]-2-oxabicyclo[2.2.2]octan-3-one]
Second: Cc1cc(Nc2nccc(C(F)(F)F)n2)cc(-c2ccc(C3(O)CCC(C(=O)O)C(C)(C)C3)nc2)c1 (single isomer, unassigned) [Example 9.16, (1R,4S or 1S,4R)-4-hydroxy-2,2-dimethyl-4-[5-(3-methyl-5-{[4-(trifluoromethyl)pyrimidin-2-yl]amino}phenyl)pyridin-2-yl]cyclohexanecarboxylic acid]
The IC50 of the first is higher: 100 to 1000 nM for the first, less than 100 nM for the second. The second is the more potent here.

First: Cc1cc(Nc2nccc(C(F)(F)F)n2)cc(-c2ccc(C34CCC(C(=O)O3)C(C)(C)C4)nc2)c1 (single isomer, unassigned) [Example 9.10, (1S,4R or 1R,4S) 5,5-dimethyl-1-[5-(3-methyl-5-{[4-(trifluoromethyl)pyrimidin-2-yl]amino}phenyl)pyridin-2-yl]-2-oxabicyclo[2.2.2]octan-3-one]
Second: CC1(C)CC(O)(c2ccc(-c3cc(F)cc(Nc4nccc(C(F)(F)F)n4)c3)cn2)CCC1C(=O)O (single isomer, unassigned) [Example 9.14, (1R,4S or 1S,4R)-4-[5-(3-fluoro-5-{[4-(trifluoromethyl)pyrimidin-2-yl]amino}phenyl)pyridin-2-yl]-4-hydroxy-2,2-dimethylcyclohexanecarboxylic acid]
The IC50 of the first is higher: 100 to 1000 nM for the first, less than 100 nM for the second. The second is the more potent here.

`CC1(C)CC(O)(c2ccc(-c3cc(Nc4nccc(C(F)(F)F)n4)cc(C(F)F)c3)cn2)CCC1C(=O)O` (single isomer, unassigned) [Example 9.13, (1S,4R or 1R,4S)-4-{5-[3-(difluoromethyl)-5-{[4-(trifluoromethyl)pyrimidin-2-yl]amino}phenyl]pyridin-2-yl}-4-hydroxy-2,2-dimethylcyclohexanecarboxylic acid] and `Cc1cc(Nc2nccc(C(F)(F)F)n2)cc(-c2ccc(C(C)(O)[C@H]3CC[C@H](C(=O)O)CC3)nc2)c1` (single isomer, unassigned) [Example 9.30, trans-4-{(1R or 1S)-1-hydroxy-1-[5-(3-methyl-5-{[4-(trifluoromethyl)pyrimidin-2-yl]amino}phenyl)pyridin-2-yl]ethyl}cyclohexanecarboxylic acid] cannot be ordered by IC50: less than 100 nM for the first, less than 100 nM for the second.

`COc1ccnc(Nc2cc(C)cc(-c3ccc(C(C)(O)[C@H]4CC[C@H](C(=O)O)CC4)nc3)c2)n1` (single isomer, unassigned) [Example 9.17, trans-4-[(1R or 1S)-1-hydroxy-1-(5-{3-[(4-methoxypyrimidin-2-yl)amino]-5-methylphenyl}pyridin-2-yl)ethyl]cyclohexanecarboxylic acid] and `Cc1cc(Nc2nccc(C)n2)cc(-c2ccc(C(C)(O)[C@H]3CC[C@H](C(=O)O)CC3)nc2)c1` (single isomer, unassigned) [Example 9.26, trans-4-[(1R or 1S)-1-hydroxy-1-(5-{3-methyl-5-[(4-methylpyrimidin-2-yl)amino]phenyl}pyridin-2-yl)ethyl]cyclohexanecarboxylic acid] cannot be ordered by IC50: less than 100 nM for the first, less than 100 nM for the second.

`Cc1cc(Nc2nccc(C3CC3)n2)cc(-c2ccc(C(C)(O)[C@H]3CC[C@H](C(=O)O)CC3)nc2)c1` (single isomer, unassigned) [Example 9.18, trans-4-[(1R or 1S)-1-(5-{3-[(4-cyclopropylpyrimidin-2-yl)amino]-5-methylphenyl}pyridin-2-yl)-1-hydroxyethyl]cyclohexanecarboxylic acid] and `Cc1cc(Nc2nccc(C)n2)cc(-c2ccc(C(C)(O)[C@H]3CC[C@H](C(=O)O)CC3)nc2)c1` (single isomer, unassigned) [Example 9.27, cis-4-[(1S or 1R)-1-hydroxy-1-(5-{3-methyl-5-[(4-methylpyrimidin-2-yl)amino]phenyl}pyridin-2-yl)ethyl]cyclohexanecarboxylic acid] cannot be ordered by IC50: less than 100 nM for the first, less than 100 nM for the second.

`Cc1cc(Nc2nccc(C3CC3)n2)cc(-c2ccc(C(C)(O)[C@H]3CC[C@H](C(=O)O)CC3)nc2)c1` (single isomer, unassigned) [Example 9.19, trans-4-[(1R or 1S)-1-(5-{3-[(4-cyclopropylpyrimidin-2-yl)amino]-5-methylphenyl}pyridin-2-yl)-1-hydroxyethyl]cyclohexanecarboxylic acid] and `COc1ccnc(Nc2cc(C)cc(-c3ccc(C(C)(O)[C@H]4CC[C@H](C(=O)O)CC4)nc3)c2)n1` (single isomer, unassigned) [Example 9.28, trans-4-[(1R or 1S)-1-hydroxy-1-(5-{3-[(4-methoxypyrimidin-2-yl)amino]-5-methylphenyl}pyridin-2-yl)ethyl]cyclohexanecarboxylic acid] cannot be ordered by IC50: less than 100 nM for the first, less than 100 nM for the second.

First: Cc1cc(Nc2nccc(C(F)F)n2)cc(-c2ccc(C(C)(O)C3CCC(C(=O)O)CC3)nc2)c1 (single isomer, unassigned) [Example 9.29, trans-4-{(1R or 1S)-1-[5-(3-{[4-(difluoromethyl)pyrimidin-2-yl]amino}-5-methylphenyl)pyridin-2-yl]-1-hydroxyethyl}cyclohexanecarboxylic acid]
Second: CCCCOC(=O)C1CCC(C(C)(O)c2ccc(-c3cc(C)cc(Nc4nccc(C(F)F)n4)c3)cn2)CC1 (single isomer, unassigned) [Example 9.51, butyl trans-4-{(1R or 1S)-1-[5-(3-{[4-(difluoromethyl)pyrimidin-2-yl]amino}-5-methylphenyl)pyridin-2-yl]-1-hydroxyethyl}cyclohexanecarboxylate]
The IC50 of the first is lower: less than 100 nM for the first, 100 to 1000 nM for the second.

Compared with `Cc1cc(Nc2nccc(C(F)F)n2)cc(-c2ccc(C(C)(O)C3CCC(C(=O)O)CC3)nc2)c1` (single isomer, unassigned) [Example 9.31, trans-4-{(1R or 1S)-1-[5-(3-{[4-(difluoromethyl)pyrimidin-2-yl]amino}-5-methylphenyl)pyridin-2-yl]-1-hydroxyethyl}cyclohexanecarboxylic acid], `CCCCOC(=O)C1CCC(C(C)(O)c2ccc(-c3cc(C)cc(Nc4nccc(OC)n4)c3)cn2)CC1` (single isomer, unassigned) [Example 9.50, butyl trans-4-[(1R or 1S)-1-hydroxy-1-(5-{3-[(4-methoxypyrimidin-2-yl)amino]-5-methylphenyl}pyridin-2-yl)ethyl]cyclohexanecarboxylate] is higher in IC50: less than 100 nM for the first, 100 to 1000 nM for the second. The first is the more potent here.
